Measurements: patent publication US7736638B2, “Interleukin-15 antagonist peptide” (Centro de Ingenieria Genetica y Biotecnologia, priority 2004, dated 2010)
“Also recorded” adds a separate entry of the source. Ends that are not written are not given here.

What was measured:
[1] = target: IL-15Rα-Fc (Homo sapiens, UniProt Q13261); experiment: IL-15 peptide spot mapping on cellulose filter, binding of IL-15Rα-Fc; conditions: 10-mer peptides on cellulose membrane; IL-15 α-Receptor at 5 μg/mL; blue/violet color = positive; listed as 8
Sequence of IL-15Rα-Fc (Q13261 with tags, fused parts or gaps limits assumed): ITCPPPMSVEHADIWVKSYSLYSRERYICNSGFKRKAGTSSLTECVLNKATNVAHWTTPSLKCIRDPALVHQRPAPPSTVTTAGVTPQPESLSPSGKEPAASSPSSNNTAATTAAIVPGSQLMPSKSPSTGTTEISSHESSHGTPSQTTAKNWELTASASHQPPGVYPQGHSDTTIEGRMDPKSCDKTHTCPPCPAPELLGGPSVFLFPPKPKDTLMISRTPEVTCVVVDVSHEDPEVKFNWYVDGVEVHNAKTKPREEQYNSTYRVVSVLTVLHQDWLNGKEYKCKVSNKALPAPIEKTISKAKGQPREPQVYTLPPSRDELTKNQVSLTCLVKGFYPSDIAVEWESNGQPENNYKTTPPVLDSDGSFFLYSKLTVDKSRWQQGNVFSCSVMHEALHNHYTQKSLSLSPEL
Procedure: To identify IL-15 regions involved in IL-15Rα binding, the peptide spot synthesis approach was used as previously described Frank et. al. The derivation of Whatman 540 paper was carried out estherifying the first anchor component, Fmoc-β-Ala-OH, using N,N′-Diisopropylcarbodiimide (DIC) and N-methylimidazole (NMI) in dry N,N-dimethylformamide (DMF). The spot array on the cellulose membrane was defined anchoring the Fmoc-β-Ala-OH on the previously marked positions, according to the required number of 10-mer peptides (22 peptides, overlapping in 5 residues, 114 amino acids of IL-15 sequence). Besides, a non-related 10 amino acids peptide was synthesized on spot 23 and also on spot 24 only Fmoc-β-Ala-OH was anchoring, both as controls. For the assembly of all these molecules, the standard Fmoc-/tBu chemistry was used. After the final cycle of synthesis, the N-terminus and side chains of all peptides were de-protected.
Cellulose sheet was soaked in ethanol to prevent possible hydrophobic interactions between the peptides on it. Ethanol was exchanged against Tris-buffer saline (TBS) (150 mM NaCl, 10 mM Tris, pH 7.6) by sequential washing. Nonspecific binding was blocked by incubating membrane overnight in 10 mL of TBS blocking buffer (5% Powdered milk in TBS). […]

[2] = target: T1, IL-15Rα-Fc fusion protein (R&D 147-IR) (Homo sapiens, UniProt Q13261); experiment: Colorimetric assay in Tentagel S beads, peptide binding to IL-15Rα; conditions: resin-bound peptide, IL-15Rα-Fc at 5 μg/mL
T1 construct: purchased R&D 147-IR
T1 sequence (Q13261 with tags, fused parts or gaps limits assumed): as above
Procedure: The resin NH2-Tentagel-S (0.24 mmol/g) was washed several times with di-chlorometane (DCM) and methanol. Then, it was incubated in a trifluoroacetic acid (TFA) solution 30% for 10 minutes; washed several times with DCM and incubated in di-isopropilethilamine (DIEA) 5% in DCM for 1 minute. This procedure activated the NH2 groups for synthesis. Later, it was washed with DCM and incubated in di-methylformamide (DMF) for 5 minutes to synthesize the peptide. The conventional Fmoc/tBu strategy of synthesis was used. Coupling reactions were followed by ninhidrine test. Once peptide Sec. No.1 sequence was completed, amino acids side chains were de-protected, leaving it anchored by its C-terminal to the resin.
Resin beads with anchored peptide were several times washed with saline solution (PBS). Non specific interactions were blocked with BSA (1%) in PBS for 1 hour at RT. Then, they were incubated with IL-15Rα-Fc fusion protein (R&D 147-IR) at 5 μg/mL in BSA (1%/PBS) for 16 hours at 4° C. Later, beads were washed in PBS three fold for 5 minutes with shaking and then incubated with anti-Fc IgG human-phosphatase conjugate diluted 1:25000 in BSA (1%/PBS) for three hours at RT. They were extensively washed with a saline solution (TBS/Tween-20, 1%) and incubated with BCIP (0.45 mg/mL) in substrate solution (100 mM Tris, pH 8.9; 100 mM NaCl; 2 mM MgCl2) for approximately 30 minutes. […]

[3] = tested on: IL-15-induced proliferation of CTLL-2 cells; experiment: CTLL-2 proliferation assay with human IL-15 (MTT staining); assay type: cell-based; conditions: fixed peptide concentration 260 μM
Procedure: The cytokine-dependent cell line CTLL-2 proliferates in presence of IL-15. IL-15 bound molecules impairing receptor depending signal transduction would inhibit this cell line proliferation. To evaluate the neutralizing capacity the peptide of the present invention, serial dilutions of them were done in 96 well plates (Costar, USA) in 25 μL volume of RPMI medium (Gibco) supplemented with 10% fetal bovine serum (Gibco). Previously washed CTLL-2 cells were added to 5×10^3 cells/well and it was incubated for 30 min. Then, 300 pg of IL-15 were added to each well. Plate was incubated for 72 h at 5% CO2 and 37° C. […] We also evaluated the antagonist effect of 260 μM of this peptide at different IL-15 concentrations (FIG. 3a).

[4] = tested on: TNFα-induced apoptosis in L929 cells; experiment: Apoptosis induction assay in L929 cells (DNA fragmentation assay); assay type: cell-based; conditions: TNFα 100 ng/mL, peptide 260 μM, 24 h
Procedure: The DNA Fragmentation Assay allows to determine the amount of DNA that is degraded upon treatment of cells with TNF-alpha. The cells' DNA is radioactively labeled by growing the cells in presence of 3H-Thymidine so that radioactive 3H-Thymidine is incorporated into the DNA. After 24 h the cells were treated with Tripsin/EDTA, washed and seeded at 5000 cells per well in a 96 well plate. Then, the labeled cells were incubated with TNFα (100 ng/mL), IL-15 (100 ng/mL), peptides (260 μM) or combinations of TNFα with different peptides.
During this incubation the added agent (e.g. TNFα induces cells to die by apoptosis and consequently the fragmentation of DNA while the DNA of untreated cells remains intact). After 24 h the cells were harvested: during harvesting, the cells were washed out of the wells of the 96 well plate with bidestilated water: the cells and organelles burst and the cell's DNA is set free. The cell fragments and DNA are passed through a filter membrane (glassfiber). Only particles of smaller than 1,5 μm can pass the filter. […] The filter membrane was dried and the amount of radioactivity (what corresponds to the amount of intact DNA) counted in a scintillation counter. The percentage of DNA fragmentation was calculated by comparing the counted radioactivity (counts per minute=cpm) of cells that were not treated with the cpm in cells that were treated with agent.

KVTAMKCFLL-NH2 [SEQ ID NO: 1]
recognition of the peptide spot by IL-15Rα-Fc [1]: recognizes; also recorded: recognition
color development in beads incubated with IL-15Rα-Fc [2]: intense blue color
color development in beads incubated with IL-15Rα-Fc in presence of an excess of human IL-15 ([2]; excess of IL-15 (competition)): did not observed color
antagonist effect of the peptide at different IL-15 concentrations [3]: dependent on IL-15 doses
protection from TNFα-induced apoptosis (DNA fragmentation) [4]: protected form TNF induced apoptosis
